Results taken from patent publication US4443536A, “Nondiffusible photographic couplers and photographic elements and processes employing same” (Eastman Kodak Company, priority 1982, dated 1984).
“And” between values parts separate entries of the source, which are not always exact repeats. Equal entries are not always repeated.

Experiment: Dye hue from spectrophotometric curves: λ-max, half band width, curve shape factor
Settings: for CSF (curve shape factor, 100 X TBW/HBW) / HBW (half band width) / λ-max (maximum absorption peak of dye): Table I; for CSF / HBW / λ-max: Table II
Procedure: Photographic elements containing couplers of this invention and control couplers were prepared and tested according to the procedures described below.
The photosensitive layer was overcoated with a layer containing gelatin at 1.08 g/m^2 and bis-vinyl-sulfonylmethyl ether at 1.75 weight percent based on total gelatin.
Samples of each element were imagewise exposed through a graduated-density test object and processed at 40° C. employing one of three color developing solutions identified below then stopped, bleached, fixed and washed.
In each element, well-defined, dye images were produced which were evaluated by plotting dye density vs. log exposure sensitometric curves and recording the maximum dye density (Dmax) and gamma (γ) i.e., the contrast determined by the slope of the straight line portion of the curve. Additionally, dye hues were evaluated from spectrophotometric curves by measuring the maximum absorption peak (λmax) normalized to a density of 1.0 and the half band width (HBW). Halfband width is the width, in nanometers, of the spectrophotometric curve at one-half the difference between maximum density and stain. Similarly, the top-band width (TBW) and bottom-band width (BBW) of the curve were measured at three-fourths and one-fourth, respectively, of the normalized density. Curve shape factor (CSF) equals 100 X TBW/HBW and provides a ratio of the width near the top and bottom of the absorption curve. The greater this ratio, the steeper are the sides of the absorption peak, and the more efficient is the dye's absorption of light in its spectral region.
Photographic elements containing additional couplers of this invention were prepared, processed and evaluated as described above in connection with Examples 1-14.

[1] = coupler solvent CS-1, developer D-1
[2] = coupler solvent CS-2, developer D-2
[3] = coupler solvent CS-2, developer D-3
[4] = coupler solvent CS-3, developer D-3
[5] = coupler solvent CS-3, developer D-2
[6] = coupler solvent CS-3, developer D-1
[7] = coupler solvent CS-4, developer D-3

## CCCCCCCCCCCCC(Oc1ccc(S(=O)(=O)c2ccc(O)cc2)cc1)C(=O)NC1=NN(c2c(Cl)cc(Cl)cc2Cl)C(=O)C1 (stereo not drawn) [Coupler M-3]
[1]
  CSF (curve shape factor, 100 X TBW/HBW): 46.0
  HBW (half band width): 96 nanometers
  λ-max (maximum absorption peak of dye): 546
  CSF: 45.7%
  HBW: 96 nm
  λ-max: 546 nm

## CCCCCCCCCCCCC(Oc1ccc(O)c(C(C)(C)C)c1)C(=O)Nc1ccc(Cl)c(NC2=NN(c3c(Cl)cc(Cl)cc3Cl)C(=O)C2)c1 (stereo not drawn) [CC-2, reference compound]
[2]
  CSF (curve shape factor, 100 X TBW/HBW): 46.3 and 39.5 and 39.9
  HBW (half band width): 81 nanometers and 79 nanometers and 78 nanometers
  λ-max (maximum absorption peak of dye): 539 and 540
[3]
  CSF (curve shape factor, 100 X TBW/HBW): 40.4
  HBW (half band width): 79 nanometers
  λ-max (maximum absorption peak of dye): 545

## CCCCCCCCCCC(Oc1ccc(S(=O)(=O)c2ccc(O)cc2)cc1)C(=O)Nc1cc(O)c(NC(=O)Nc2cccc(S(=O)(=O)NCCCC)c2)cc1OC (stereo not drawn) [Coupler C-13]
[4]
  CSF: 44.4%
  HBW: 135 nm
  λ-max: 702 nm

## CCCCCCCCCCCCCCCCS(=O)(=O)Nc1ccc(Cl)c(NC(=O)C(Oc2ccc(S(=O)(=O)c3ccc(OCc4ccccc4)cc3)cc2)C(=O)C(C)(C)C)c1 (stereo not drawn) [CC-5, reference compound]
[5]
  CSF (curve shape factor, 100 X TBW/HBW): 43.5
  HBW (half band width): 88 nanometers
  λ-max (maximum absorption peak of dye): 446

## CCc1c(Cl)cc(NC(=O)C(CC)Oc2ccc(C(C)(C)CC)cc2C(C)(C)CC)c(O)c1Cl (stereo not drawn) [CC-4, reference compound]
[5]
  CSF (curve shape factor, 100 X TBW/HBW): 45.2
  HBW (half band width): 141 nanometers
  λ-max (maximum absorption peak of dye): 659

## CCCCCCCCCCCCC(Oc1ccc(S(=O)(=O)c2ccc(O)cc2)cc1)C(=O)Nc1ccc(NC(=O)CCC)c(O)c1 (stereo not drawn) [Coupler C-2]
[6]
  CSF: 45.7%
  HBW: 144 nm
  λ-max: 655 nm

## CCCCC(Oc1ccc(S(=O)(=O)c2ccc(OCc3ccccc3)cc2)cc1)C(=O)Nc1cccc(NC(=O)C(Oc2ccc(S(=O)(=O)c3ccc(O)cc3)cc2)C(=O)C(C)(C)C)c1 (stereo not drawn) [CC-8, reference compound]
[5]
  CSF (curve shape factor, 100 X TBW/HBW): 44.3
  HBW (half band width): 90 nanometers
  λ-max (maximum absorption peak of dye): 439

## CCCCC(Oc1ccc(S(=O)(=O)c2ccc(O)cc2)cc1)C(=O)Nc1cccc(NC(=O)C(Oc2ccc(S(=O)(=O)c3ccc(O)cc3)cc2)C(=O)C(C)(C)C)c1 (stereo not drawn) [Coupler Y-3]
[5]
  CSF (curve shape factor, 100 X TBW/HBW): 44.4
  HBW (half band width): 93 nanometers
  λ-max (maximum absorption peak of dye): 441

## CCCCCCCCCCC(Oc1ccc(S(=O)(=O)c2ccc(O)cc2)cc1)C(=O)Nc1ccc(Cl)c(NC2=NN(c3c(Cl)cc(Cl)cc3Cl)C(=O)C2SCCCCCCC)c1 (stereo not drawn) [Coupler M-29]
[2]
  CSF (curve shape factor, 100 X TBW/HBW): 46.7
  HBW (half band width): 88 nanometers
  λ-max (maximum absorption peak of dye): 540
[3]
  CSF (curve shape factor, 100 X TBW/HBW): 40.9
  HBW (half band width): 90 nanometers
  λ-max (maximum absorption peak of dye): 545

## CCCCCCCCCCC(Oc1ccc(S(=O)(=O)c2ccc(O)cc2)cc1)C(=O)Nc1cc(Cl)c(CC)c(Cl)c1O (stereo not drawn) [Coupler C-31]
[5]
  CSF (curve shape factor, 100 X TBW/HBW): 47.0
  HBW (half band width): 160 nanometers
  λ-max (maximum absorption peak of dye): 675

## CCCCC(Oc1ccc(S(=O)(=O)c2ccc(O)cc2)cc1)C(=O)Nc1ccc(Cl)c(NC(=O)C(Oc2ccc(S(=O)(=O)c3ccc(O)cc3)cc2)C(=O)C(C)(C)C)c1 (stereo not drawn) [Coupler Y-2]
[5]
  CSF (curve shape factor, 100 X TBW/HBW): 44.4
  HBW (half band width): 90 nanometers
  λ-max (maximum absorption peak of dye): 445

## CCC(C)(C)c1ccc(OCC(=O)Nc2cccc(C(=O)NC3=NN(c4c(Cl)cc(Cl)cc4Cl)C(=O)C3)c2)c(C(C)(C)CC)c1 [CC-3, reference compound]
[3]
  CSF (curve shape factor, 100 X TBW/HBW): 45.3
  HBW (half band width): 88 nanometers
  λ-max (maximum absorption peak of dye): 556

## CC(C)(C)C(=O)C(Oc1ccc(S(=O)(=O)c2ccc(OCc3ccccc3)cc2)cc1)C(=O)Nc1cc(NS(=O)(=O)c2ccc(O)cc2)ccc1Cl (stereo not drawn) [Coupler Y-1]
[5]
  CSF (curve shape factor, 100 X TBW/HBW): 43.7
  HBW (half band width): 88 nanometers
  λ-max (maximum absorption peak of dye): 449

## CCCCCCCCCCC(Oc1ccc(S(=O)(=O)c2ccc(O)cc2)cc1)C(=O)Nc1ccc(CCCc2n[nH]c3cc(C)nn23)cc1 (stereo not drawn) [Coupler M-8]
[3]
  CSF (curve shape factor, 100 X TBW/HBW): 50.5
  HBW (half band width): 86 nanometers
  λ-max (maximum absorption peak of dye): 550

## CCCCCCCCCCCCCCCc1cccc(OC(CC)C(=O)NC2=NN(c3c(C)cc(C)cc3Cl)C(=O)C2)c1 (stereo not drawn) [CC-1, reference compound]
[1]
  CSF (curve shape factor, 100 X TBW/HBW): 43.3 and 43.6 and 43.1
  HBW (half band width): 94 nanometers
  λ-max (maximum absorption peak of dye): 531

## CCC(C)(C)c1ccc(OCCCC(=O)Nc2ccc(Cl)c(NC(=O)C(Oc3ccc(S(=O)(=O)c4ccc(OCc5ccccc5)cc4)cc3)C(=O)C(C)(C)C)c2)c(C(C)(C)CC)c1 (stereo not drawn) [CC-6, reference compound]
[5]
  CSF (curve shape factor, 100 X TBW/HBW): 42.0
  HBW (half band width): 85 nanometers
  λ-max (maximum absorption peak of dye): 441

## CCCCCCCCCCC(Oc1ccc(S(=O)(=O)c2ccc(O)cc2)cc1)C(=O)Nc1ccc(CCCc2n[nH]c3c(Cl)c(C)nn23)cc1 (stereo not drawn) [Coupler M-9]
[7]
  CSF: 44.2%
  HBW: 90 nm
  λ-max: 558 nm

## CCCCCCCCCCCCC(Oc1ccc(S(=O)(=O)c2ccc(O)cc2)cc1)C(=O)Nc1ccc(NC(=O)C(F)(F)F)c(O)c1 (stereo not drawn) [Coupler C-3]
[5]
  CSF: 47.8%
  HBW: 161 nm
  λ-max: 659 nm

## CCCCCCCCCCC(CN(C)S(=O)(=O)c1ccc(NC2=NN(c3c(Cl)cc(S(=O)(=O)N(C)C)cc3Cl)C(=O)C2)c(Cl)c1)Oc1ccc(S(=O)(=O)c2ccc(O)cc2)cc1 (stereo not drawn) [Coupler M-32]
[2]
  CSF (curve shape factor, 100 X TBW/HBW): 40.9
  HBW (half band width): 82 nanometers
  λ-max (maximum absorption peak of dye): 549

## CCCCCCCCCCCCC(Oc1ccc(S(=O)(=O)c2ccc(O)cc2)cc1)C(=O)Nc1ccc(Cl)c(NC2=NN(c3c(Cl)cc(Cl)cc3Cl)C(=O)C2)c1 (stereo not drawn) [Coupler M-27]
[1]
  CSF (curve shape factor, 100 X TBW/HBW): 47.0
  HBW (half band width): 91 nanometers
  λ-max (maximum absorption peak of dye): 545

## CCCCCCCCCCC(Oc1ccc(S(=O)(=O)c2ccc(OCc3ccccc3)cc2)cc1)C(=O)Nc1ccc(Cl)c(NC(=O)C(Oc2ccc(S(=O)(=O)c3ccc(O)cc3)cc2)C(=O)C(C)(C)C)c1 (stereo not drawn) [CC-9, reference compound]
[6]
  CSF (curve shape factor, 100 X TBW/HBW): 43.8
  HBW (half band width): 87 nanometers
  λ-max (maximum absorption peak of dye): 450

## CCCCCCCCCCC(Oc1ccc(S(=O)(=O)c2ccc(O)cc2)cc1)C(=O)Nc1ccc(Cl)c(NC(=O)C(Oc2ccc(S(=O)(=O)c3ccc(O)cc3)cc2)C(=O)C(C)(C)C)c1 (stereo not drawn) [Coupler Y-4]
[6]
  CSF (curve shape factor, 100 X TBW/HBW): 44.6
  HBW (half band width): 90 nanometers
  λ-max (maximum absorption peak of dye): 450

## CCCCC(Oc1ccc(S(=O)(=O)c2ccc(OCc3ccccc3)cc2)cc1)C(=O)Nc1ccc(Cl)c(NC(=O)C(Oc2ccc(S(=O)(=O)c3ccc(O)cc3)cc2)C(=O)C(C)(C)C)c1 (stereo not drawn) [CC-7, reference compound]
[5]
  CSF (curve shape factor, 100 X TBW/HBW): 45.2
  HBW (half band width): 85 nanometers
  λ-max (maximum absorption peak of dye): 445

## CCCCCCCCCCC(Oc1ccc(S(=O)(=O)c2ccc(O)cc2)cc1)C(=O)Nc1ccc(Cl)c(NC2=NN(c3c(Cl)cc(Cl)cc3Cl)C(=O)C2)c1 (stereo not drawn) [Coupler M-28]
[1]
  CSF (curve shape factor, 100 X TBW/HBW): 46.7
  HBW (half band width): 92 nanometers
  λ-max (maximum absorption peak of dye): 549
[2]
  CSF (curve shape factor, 100 X TBW/HBW): 46.5
  HBW (half band width): 93 nanometers
  λ-max (maximum absorption peak of dye): 541
[3]
  CSF (curve shape factor, 100 X TBW/HBW): 46.4
  HBW (half band width): 94 nanometers
  λ-max (maximum absorption peak of dye): 549
  CSF: 42.6%
  HBW: 94 nm
  λ-max: 549 nm
